Source: patent US12473584B2, “Method for detecting the presence, identification and quantification in a blood sample of anticoagulants which are blood coagulation enzymes inhibitors, and means for the implementation thereof” (DIAGNOSTICA STAGO, priority 2018, dated 2025)

Molecular target: T1, bovine factor Xa (Bos taurus, UniProt P00743)
T1 construct: (bovine factor Xa); purchased Stago (Diagnostica Stago) STA®—Liquid Anti-Xa commercial kit (catalogue number not given)
Assay: competitive enzymatic assay, enzyme-substrate reaction (universal methodology, STA-Liquid Anti-Xa kit)
Format: biochemical
Settings: bovine factor Xa [E]≈10 nM, substrate [S]≈482 μM, 37° C.
Description: In accordance with this particular embodiment, the in vitro measurement for the detection, the identification, and the quantification of synthetic inhibitors of factor Xa was carried out in accordance with the following principle: • 25 μL of a plasma sample suspected of containing a heparin or an anti-Xa DOAC was diluted in 25 μL of Owren Koller buffer (TOK), then placed in a consumable; • 150 μL of “Substrate” reagent (MAPA-Gly-Arg-pNA) (reagent in the STA®—Liquid Anti-Xa commercial kit) specific for factor Xa was added to the reaction mixture; • an incubation step of 240 seconds raised the reaction mixture to 37° C.; • 150 μL of the reagent “F. Xa” (bovine factor Xa) (reagent in the STA®—Liquid Anti-Xa commercial kit) was added to the reaction mixture, thereby initiating competition between the inhibition reaction and the enzymatic reaction; • the measurement per se was then carried out over 156 seconds: factor Xa transforms the substrate into product while at the same time being inhibited by the heparin or the DOAC if they are present in the sample. […]

T1 sequence (P00743 234-492 limits assumed): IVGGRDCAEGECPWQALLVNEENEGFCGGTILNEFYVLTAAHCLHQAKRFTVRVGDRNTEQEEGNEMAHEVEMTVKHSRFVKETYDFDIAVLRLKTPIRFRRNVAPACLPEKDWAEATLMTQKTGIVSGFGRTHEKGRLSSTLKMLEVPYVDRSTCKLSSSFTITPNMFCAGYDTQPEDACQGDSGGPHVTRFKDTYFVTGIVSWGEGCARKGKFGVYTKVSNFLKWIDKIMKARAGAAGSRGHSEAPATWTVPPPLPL
T1 sequence (P00743 41-180 limits assumed): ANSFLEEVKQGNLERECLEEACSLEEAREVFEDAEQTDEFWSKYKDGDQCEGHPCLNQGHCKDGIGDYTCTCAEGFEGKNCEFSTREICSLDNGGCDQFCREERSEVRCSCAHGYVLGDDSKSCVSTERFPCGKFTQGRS

Substance: MAPA-Gly-Arg-pNA
- Michaelis constant KM associated with the enzyme-substrate reaction: ~500 µM
- catalytic constant kcat associated with the enzyme-substrate reaction: approximately 400 s-1
